Data from ChEMBL document CHEMBL1221225, “A small molecule that directs differentiation of human ESCs into the pancreatic lineage” (Nat Chem Biol, 2009).

How the values were obtained:
Assay type in all cases: cell-based
[1] = Activation of PKC signaling in human HUES8 cells assessed as increase in Pdx1-expressing cells at 14 nM after 4 days by immunocytochemistry pregrown in medium with Wnt3a, activin A, FGF10, KAAD-cyclopamine and retinoic acid relative to ILV treated cells
[2] = Activation of PKC signaling in human HUES8 definitive endoderm cells assessed as increase in Pdx1-expressing cells at 14 nM after 4 days by immunocytochemistry (reference value: 2.8+/-0.6%)
[3] = Activation of PKC signaling in human HUES8 cells assessed as increase in Pdx1-expressing cells at 500 nM after 4 days by immunocytochemistry pregrown in medium with Wnt3a, activin A, FGF10, KAAD-cyclopamine and retinoic acid relative to ILV treated cells
[4] = Activation of PKC signaling in human HUES8 definitive endoderm cells assessed as increase in Pdx1-expressing cells at 500 nM after 4 days by immunocytochemistry (reference value: 2.8+/-0.6%)

Q: What does the source list for CCCCCCCCCCCCCC(=O)O[C@@H]1[C@@H](C)[C@@]2(O)[C@@H](C=C(CO)C[C@]3(O)C(=O)C(C)=C[C@@H]23)[C@@H]2C(C)(C)[C@]12OC(C)=O?
A: inhibition [1]: 21.3%; inhibition [2]: 18.3%

Q: Which results are given for CC(C)[C@H]1C(=O)N[C@H](CO)Cc2cc(NC(=O)/C=C/C=C/c3ccc(C(F)(F)F)cc3)ccc2N1C?
A: inhibition [3]: 15.4%; inhibition [4]: 12.2%
